Test results published in publication PMC9045296, “Development of Antifungal Peptides against Cryptococcus neoformans; Leveraging Knowledge about the cdc50Δ Mutant Susceptibility for Lead Compound Development” (Microbiology Spectrum, 2022).
Values after ≈ are worked out from the molar mass of the structure shown. Where two headings read alike, the source gives them in different places. Residues, ends and D or L forms follow the SMILES beside them. *: point of attachment. Myristoyl = CCCCCCCCCCCCCC(=O)*

Experiments:
cdc50Δ mutant strain [1] = format: cell-based, Cryptococcus neoformans; details: Table S1, drug alone
Procedure: (§1) Our assays followed standard CLSI protocol for broth microdilution assays using yeasts ([32]). Microbes were passaged in YPD media at 37°C with mixing for 2 days before harvesting with an inoculation loop to prepare monocultures on Sabouraud Dextrose Agar (SDA) plates. Monocultures on SDA plates were incubated for 2 days at 37°C before harvesting cells for microdilution assays. RPMI media (100 μL) was charged to each of the 96 wells in a 96-well plate, with an additional 100 μL in the first column. Peptide-DMSO solution (4 μL) at 12.8 mg/mL was charged to each of the wells in the first column. The 100 μL was serially diluted by a factor of 2 from the first column to the 11th column. Microbe inoculant was then prepared. An inoculation loop was used to transfer 1–3 colonies of cells to 1 mL phosphate buffer solution (PBS). The PBS and microbe solution was made uniform by vortex mixing. Cell concentration was computed by comparing the absorbance at 530 nm to 1x McFarland standard solution and multiplying the resulting ratio by 10^7 cell/mL conversion factor. Plate inoculant was prepared by diluting the PBS microbe solution to 5000 cell/mL, in RPMI media. A 100 μL aliquot of cells was transferred to each of the wells on the plate other than column 11 for the no growth control. The operating volume was 200 μL, with 500 CFU per well for a final concentration of 2.5*10^3 cells/mL. Inoculated plates were incubated for 48 h at 37°C and read at 24 and 48 h ([33]).

C. neoformans H99 [2] = format: cell-based, Cryptococcus neoformans; details: for FIC H99 Caspofungin: Table S1, concentration of caspofungin in combination with the peptide; for FIC H99 Peptide: Table S1, concentration of peptide in combination with caspofungin
Procedure: (§2) Again, 200 μL was the operating volume, 500CFU per well, 2.5*10^3 cell/mL. Plates were incubated for 48 h at 37°C and read thereafter. The Fractional Inhibitory Concentration Index were calculated in Equation 1: FICIndex=FICA/MICA+FICB/MICB

ΔCDC50 mutant strain = format: cell-based, Cryptococcus neoformans; details: for FIC ΔCDC50 Caspofungin: Table S1, concentration of caspofungin in combination with the peptide; for FIC ΔCDC50 Peptide: Table S1, concentration of peptide in combination with caspofungin
Procedure: as §2

[3] = tested on: C. neoformans wild-type strain H99; assay: microbe, parasite or virus in culture; format: cell-based, Cryptococcus neoformans; details: for MIC: Cryptococcus neoformans
Procedure: as §1

[4] = tested on: exofacial PS on C. neoformans cells; assay: AF350-annexin V flow cytometry assay; format: cell-based, Cryptococcus neoformans; details: 0.128 mg/mL peptide, 5*10^6 cell/mL, 20 min at 25°C, triplicate; control 0.2 ± 0.1%
Excerpt: We sought to determine whether the activities of the peptides were related to the lipid-flipping activity of the P4-ATPase. […] The intensity of the AF350-annexin V signal corresponds to concentration of PS on the exofacial side of the membrane. The propidium iodine signal corresponds to cell viability. […] Single cells were first selected and gated based on morphology to ensure homogeneity among the cell population (4A, 4B). We examined cells with low propidium iodine intensity (PI-A < 9 RU) and high AF350-annexin V intensity (Annexin V-A > 9 RU) (4C, 4D). Under these gating parameters there should be, respectively, low nonspecific cell death and high exofacial PS.
Stock microbes were defrosted from the –80°C freezer and were passed twice for 48 h each in YPD media. The YPD media was removed by spinning down and the supernatant was decanted. Pelletized cells were resuspended in 1 mL PBS media and washed for 5 min with incubation at 25°C and 250 RPM. Washed cells were spun down again and suspended in 1 mL of PBS solution. cells were diluted 20-fold into 1 mL fungal working solution in an eppendorf. Cell concentration was quantified via comparison to 1X McFarlain’s standard on a plate reader using the absorbance value at 530 nm. An aliquot of 1*10^6 cells in 100 μL was created (1*10^7cell/mL). A 100 μL aliquot of peptide working solution at 0.256 mg/mL was added to the cell suspension for final operating parameters of 200 μL, 0.128 mg/mL peptide, and 5*10^6cell/mL. The cells were incubated for 20 min at 25°C and 250RPM. Baseline and experimental samples were prepared in triplicate. Cells were stained using an operating concentration of 0.001 mg/mL Propidium Iodine (PI) and a 40-fold dilution of Alexa Fluor 350 labeled annexin V as per manufactures instructions. After staining the cells, samples were spun down and supernatant decanted. Cells were then fixed in 4% formaldehyde for 5 min. Fixed cells were spun down and supernatant decanted and resuspended in 400 μL 1% formaldehyde for flowcytometry. Samples were collected at a slow flow rate on a MACS Quant 10 device (Miltenyi Biotech, Auburn, CA) with 50,000 events collected per injection.

cdc50Δ mutant strain [5] = details: cited from earlier work
Excerpt: (§3) Recently, mutation studies discovered an essential role of Cryptococcus lipid flippase in echinocandin resistance ([6]). The lipid flippase is composed of the core P4 type ATPase (P4-ATPase) and a regulatory subunit Cdc50 ([7]). […] This loop region of Cdc50 has been reported in other organisms to bind to the P4-ATPase to regulate flippase activity ([8]).

[6] = tested on: C. neoformans wild-type strain H99; details: cited from earlier work
Excerpt: as §3

[7] = tested on: human red blood cells (RBCs); assay: Hemolysis assay; format: cell-based; details: human RBC, 1 h at 37°C, relative to Triton X-100
Procedure: Operating conditions were 100 μL and 2.5*10^8cell/mL. […] The plate was incubated at 37°C for 1 h. […] The scans were run in triplicate.

C. neoformans H99 [8] = assay: SDS and plate spotting assay; format: cell-based, Cryptococcus neoformans; details: H99 pretreated with 128 μg/mL peptide for 1 h at 30°C; compared to untreated or DMSO controls
Procedure: Briefly, cultures of C. neoformans were grown in YPD and then spotted on YPD plates containing 0.03% SDS.
To test cell integrity, C. neoformans strains from 3 mL YPD overnight cultures were washed, resuspended, and serially diluted (1:10) in dH2O and spotted (5 μl) on YPD agar plates or YPD agar plates containing 0.03% SDS and incubated for 2 days at 30°C and 37°C. […] Of each strain, yeast cells were inoculated into liquid YPD with 128 μg/mL or 64 μg/mL peptide and co-incubated for 1h at 30°C. And then, 10-fold serial dilutions were prepared, and 5 μl of each was spotted on YPD and YPD agar plates containing 0.03% SDS. The results were photographed after a 48 h of incubation. Their growth was determined by serial dilutions and the fungal colonies were assessed by CFU numbers.

[9] = Table S1, drug alone, wild type H99

Structure (SMILES) | MIC ΔCDC50 (cdc50Δ mutant strain [1]) [µg/mL] | MIC of caspofungin in the presence of 0.5 μg/mL peptide (C. neoformans H99 [2]; H99, checkerboard, caspofungin alone 16 μg/mL) [µg/mL] | FIC H99 Caspofungin (C. neoformans H99 [2]) [µg/mL] | FIC H99 Peptide (C. neoformans H99 [2]) [µg/mL] | FIC ΔCDC50 Caspofungin (ΔCDC50 mutant strain) [µg/mL] | FIC ΔCDC50 Peptide (ΔCDC50 mutant strain) [µg/mL] | MIC H99 [3, 9] [µg/mL] | percentage of cells with low propidium iodine (PI-A < 9 RU) and high AF350-annexin V intensity (Annexin V-A > 9 RU) [4] | MIC ([3]; Table S1, drug alone, wild type H99, read-out: MIC H99) [µg/mL] | MIC ([3]; drug alone, H99 wild type, CLSI broth microdilution, RPMI, 2.5*10^3 cells/mL, 37°C, read at 24 and 48 h, read-out: MIC) [µg/mL] | MIC value of caspofungin (cdc50Δ mutant strain [5]) [µg/mL] | MIC value of caspofungin [6] [µg/mL] | MIC (FIC) of caspofungin in the presence of the AW9-Ma peptide (C. neoformans H99 [2]; C. neoformans wild type, combination with caspofungin) [µg/mL] | hemolysis at the concentrations needed for synergy [7] | hemolytic activity (fractional lysis) ([7]; varying concentrations, absorbance 410 nm) | growth in terms of CFU on agar medium with 0.03% SDS (C. neoformans H99 [8])
CCCCCCCCCCCCCC(=O)N[C@@H](CO)C(=O)N[C@@H](CCC(=O)O)C(=O)N[C@@H](CO)C(=O)NCC(=O)N[C@H](C(=O)N[C@@H](C)C(=O)N[C@@H](Cc1c[nH]c2ccccc12)C(=O)NCC(=O)NCC(=O)N[C@H](C(=O)N[C@@H](CCCCN)C(=O)N[C@@H](CCCCN)C(=O)N[C@@H](CC(N)=O)C(=O)N[C@@H](Cc1ccc(O)cc1)C(=O)N[C@@H](C)C(=O)O)[C@@H](C)CC)[C@@H](C)CC [AS15-Ma] (Myristoyl-SESGIAWGGIKKNYA-OH) | 8 (≈ 4.47 µM) | 8 | 8 | 0.5 | 0.25 | 0.25 | > 128 | 12.1 ± 2.0% | – | – | – | – | – | – | – | –
CC[C@H](C)C[C@H](C)CCCCCCCCC(=O)N[C@H]1C[C@@H](O)[C@@H](NCCN)NC(=O)[C@@H]2[C@@H](O)CCN2C(=O)[C@H]([C@H](O)CCN)NC(=O)[C@H]([C@H](O)[C@@H](O)c2ccc(O)cc2)NC(=O)[C@@H]2C[C@@H](O)CN2C(=O)[C@H]([C@@H](C)O)NC1=O [caspofungin, reference compound] | 4 (≈ 3.66 µM) | – | – | – | – | – | – | – | 16 (≈ 14.6 µM) | 16 (≈ 14.6 µM) | 4 | 16 | – | – | – | –
CCCCCCCCCCCCCC(=O)N[C@@H](Cc1c[nH]c2ccccc12)C(=O)NCC(=O)NCC(=O)N[C@H](C(=O)N[C@@H](CCCCN)C(=O)N[C@@H](CCCCN)C(=O)N[C@@H](CC(N)=O)C(=O)N[C@@H](Cc1ccc(O)cc1)C(=O)N[C@@H](C)C(=O)O)[C@@H](C)CC [AW9-Ma] (Myristoyl-WGGIKKNYA-OH) | – | – | 4 | 16 | 0.125 | 0.125 | 64 (≈ 51.3 µM) | 67.6% ± 2.3 | – | – | – | – | 4 | low amounts of hemolysis | concentrate-dependent minimal amount of hemolysis | significantly reduced growth
